Laboratory results taken from patent publication US10682352B2, “Compound having mutant IDH inhibitory activity, preparation method and use thereof” (SHANGHAI HAIHE PHARMACEUTICAL CO., LTD., priority 2016, dated 2020).
Where two headings read alike, the source gives them in different places.

Experiments:
[1] = system: fibrosarcoma cell line HT1080; assay: 2HG inhibition assay on fibrosarcoma cell line HT1080 (LC-MS/MS); format: cell-based, Human; conditions: HT-1080 cells, 48 h incubation, read-out: HT1080 2HG Inhibitory IC50
Procedure: In this experiment, the inhibitory activity of the compounds of the present invention against the 2HG concentration level of fibrosarcoma cell line HT1080 was measured by the following method.
Different concentrations of compounds were added and incubated for 48 h. HT-1080 cells were trypsinized and collected, and centrifuged at 500 g for 5 min. The supernatant was discarded, and the cells were resuspended in 1 ml of PBS and the number of cells per sample was counting by a counter (Beckman coulter Z2, Beckman) and adjusted to be the same. After centrifuged at 500 g for 5 min, the supernatant was discarded, and the cell pellet was stored in a refrigerator at −80° C. for 2HG detection.
Sample Treatment: an ice acetonitrile solution containing 200 μL of verapamil (internal standard) was added to sample tubes respectively, vortexed for 1 min, and placed in a refrigerator at 4° C. for 20 min to lyse the cells. 100 μL of sample was taken, another 100 μL of lysate was taken in a 96-well plate and dried with a nitrogen blower, and 100 μL of water was added and vortexed to be uniform.
1. Derivatization: 100 μL of o-benzylhydroxylamine hydrochloride derivatization reagent was added and shaken on a shaker for 1 h to complete the derivatization reaction.
2. Solution extraction: 300 μL of ethyl acetate was added separately, shaken for 20 min, centrifuged at 1900 rpm for 5 min, and placed in a refrigerator at −70° C. for 40 min. All the ethyl acetate was taken up to another sample plate, and dried with a nitrogen blower. 150 μL MEOH/H2O (v/v, 1/1) was added for reconstitution.
3. Bioanalysis: All of the above samples were analyzed by LC-MS/MS (Waters ACQUITY H-Class System, Waters/AB6500, Sciex) after centrifuged at 4000 rpm for 10 min.
The inhibition rate of the sample was obtained by the following formula: […]
IC50 values were calculated using GraphPad Prism software.

IDH1 R132H = IDH1 R132H (Homo sapiens (Human), UniProt O75874, R132H); assay: Effect on the enzyme activity of IDH1 at the molecular level (NADPH consumption, diaphorase/resazurin); format: biochemical; conditions: α-KG 1 mM, NADPH 4 μM, 60 min room temperature
IDH1 R132H, sequence (O75874 whole entry R132H): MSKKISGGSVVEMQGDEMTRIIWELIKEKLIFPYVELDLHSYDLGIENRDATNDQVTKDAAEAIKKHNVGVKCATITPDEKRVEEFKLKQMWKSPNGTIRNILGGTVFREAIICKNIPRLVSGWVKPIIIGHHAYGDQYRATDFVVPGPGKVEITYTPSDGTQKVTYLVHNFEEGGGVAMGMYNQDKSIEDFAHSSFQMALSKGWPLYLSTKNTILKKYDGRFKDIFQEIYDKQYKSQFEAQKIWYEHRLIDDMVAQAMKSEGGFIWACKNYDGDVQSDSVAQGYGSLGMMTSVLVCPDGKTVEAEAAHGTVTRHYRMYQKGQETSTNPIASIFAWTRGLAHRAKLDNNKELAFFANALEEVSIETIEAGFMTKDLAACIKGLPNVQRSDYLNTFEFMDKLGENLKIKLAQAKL
Procedure: The enzyme used in the experiment was purchased from cayman Co.
The substrates α-KG, NADPH and Diaphorase were purchased from Sigma; Resazurin was purchased from J&K; and the remaining reagents were purchased from Sinopharm Chemical Reagent Co., Ltd.
Compound preparation: Compound 12000 g was centrifuged for 5 min, DMSO was added to prepare 10 mM, which was vortexed, then ultrasonic treatment for 10 minutes, and stored at −40° C. The stock solution was diluted firstly with DMSO to a 10 μM solution when tested and then gradient-diluted for 3 times to a different test concentration.
Test method: The enzyme activity of IDH1 to convert α-KG to 2HG was measured by the consumption of NADPH. After the enzymatic reaction was completed, a catalytic excess of diaphorase and reazurin were added, and the resulting fluorescent signal could reflect the amount of remaining NADPH. […] IC50 values were calculated using GraphPad Prism software.

IC50 [1] [nM] | IC50 (IDH1 R132H) [nM] | IC50 ([1]; Homo sapiens, HT-1080, 48 h) [nM] | IC50 ([1]; Homo sapiens) [nM] | Structure (SMILES)
66 | < 100 | – | – | CC(C)[C@H]1C(C)NC(=O)N1c1ccnc(N[C@@H](C)c2cn(-c3ccc(Cl)cc3)cn2)n1 (single isomer, unassigned) [Compound 86]
29 | < 100 | – | – | CC(C)[C@H]1C(C)NC(=O)N1c1ccnc(N[C@@H](C)c2cn(-c3ccc(Cl)cc3)cn2)n1 (single isomer, unassigned) [Compound 87]
– | < 100 | 24 | – | CC(C)[C@H]1C(C)N(C)C(=O)N1c1ccnc(N[C@@H](C)c2cn(-c3ccc(Cl)cc3)cn2)n1 (single isomer, unassigned) [Compound 90]
12 | < 100 | – | – | CC(C)[C@H]1C(C)N(C)C(=O)N1c1ccnc(N[C@@H](C)c2cn(-c3ccc(Cl)cc3)cn2)n1 (single isomer, unassigned) [Compound 91]
– | < 100 | 33 | – | CC(C)[C@H]1C(C)NC(=O)N1c1ccnc(N[C@@H](C)c2cn(-c3ccc(C(F)(F)F)cc3)cn2)n1 (single isomer, unassigned) [Compound 92]
34.5 | < 100 | – | – | CC(C)[C@H]1C(C)NC(=O)N1c1ccnc(N[C@@H](C)c2cn(-c3ccc(C(F)(F)F)cc3)cn2)n1 (single isomer, unassigned) [Compound 93]
– | < 100 | < 10 | – | CC(C)[C@H]1C(C)N(C)C(=O)N1c1ccnc(N[C@@H](C)c2cn(-c3ccc(C(F)(F)F)cc3)cn2)n1 (single isomer, unassigned) [Compound 94]
< 10 | < 100 | – | – | CC(C)[C@H]1C(C)N(C)C(=O)N1c1ccnc(N[C@@H](C)c2cn(-c3ccc(C(F)(F)F)cc3)cn2)n1 (single isomer, unassigned) [Compound 95]
– | – | – | 30 | N#Cc1ccnc(N2C(=O)CC[C@H]2C(=O)N(c2cncc(F)c2)[C@H](C(=O)NC2CC(F)(F)C2)c2ccccc2Cl)c1 [AG120, reference compound]
– | – | 12.9 | – | CC(C)[C@H]1CN(C)C(=O)N1c1ccnc(N[C@@H](C)c2cn(-c3ccc(Cl)cc3)cn2)n1 [Compound 17, (S)-3-(2-(((S)-1-(1-(4-chlorophenyl)-1H-imidazol-4-yl)ethyl)amino)pyrimidin-4-yl)-4-isopropyl-1-methylimidazolidine-2-one]
– | – | 27 | – | CC(C)[C@H]1CN(C)C(=O)N1c1ccnc(NC2(c3cn(-c4cc(Cl)cc(Cl)c4)cn3)CC2)n1 [Compound 26, (S)-3-(2-((1-(1-(3,5-dichlorophenyl)-1H-imidazol-4-yl)cyclopropyl)amino)pyrimidin-4-yl)-4-isopropyl-1-methylimidazolidine-2-one]
– | – | 15 | – | CC(C)c1cccc(-n2cnc(C3(Nc4nccc(N5C(=O)N(C)C[C@@H]5C(C)C)n4)CC3)c2)c1 [Compound 30, (S)-3-(2-((1-(1-(3-isopropylphenyl)-1H-imidazol-4-yl)cyclopropyl)amino)pyrimidin-4-yl)-4-isopropyl-1-methylimidazolidne-2-one]
– | – | 16 | – | CC(C)[C@H]1CN(C)C(=O)N1c1ccnc(NC2(c3cn(-c4cccc(C5CC5)c4)cn3)CC2)n1 [Compound 34]
– | – | 14 | – | COc1cc(Cl)cc(-n2cnc(C3(Nc4nccc(N5C(=O)N(C)C[C@@H]5C(C)C)n4)CC3)c2)c1 [Compound 38, (S)-3-(2-((1-(1-(3-chloro-5-methoxyphenyl)-1H-imidazol-4-yl)cyclopropyl)amino)pyrimidin-4-yl)-4-isopropyl-1-methylimidazolidine-2-one]
– | – | 10 | – | [2H]C1([2H])NC(=O)N(c2ccnc(N[C@@H](C)c3cn(-c4ccc(C(F)(F)F)cc4)cn3)n2)[C@H]1C(C)C [Compound 83, (S)-1-(2-(((S)-1-(1-(4-(trifluoromethyl)phenyl)-1H-imidazol-4-yl)ethyl)amino)pyrimidin-4-yl)-4,4-dideutero-5-isopropylimidazolidine-2-one]
– | – | 39 | – | [2H]C([2H])([2H])N1C(=O)N(c2ccnc(N[C@@H](C)c3cn(-c4ccc(Cl)cc4)cn3)n2)[C@@H](C(C)C)C1([2H])[2H] [Compound 89, (S)-3-(2-(((S)-1-(1-(4-chlorophenyl)-1H-imidazol-4-yl)ethyl)amino)pyrimidin-4-yl)-5,5-dideutero-4-isopropyl-1-deuteromethylimidazolidine-2-one]
– | – | 20 | – | CC(C)[C@@H]1N(c2ccnc(N[C@@H](C)c3cn(-c4ccc(C(F)(F)F)cc4)cn3)n2)C(=O)NC1(C)C [Compound 101]
– | 100 to 1000 | – | – | CC(C)[C@@H]1N(c2ccnc(N[C@@H](C)c3cn(-c4ccc(C(F)(F)F)cc4)cn3)n2)C(=O)N(C)C12CC2 [Compound 103, (S)-7-isopropyl-4-methyl-6-(2-(((S)-1-(1-(4-(trifluoromethyl)phenyl)-1H-imidazole-4-yl) Ethyl)amino)-4-yl)-4,6-diazaspiro[2.4]hept-5-one]
– | 100 to 1000 | – | – | [2H]C1([2H])[C@H](C(C)C)N(c2ccnc(N[C@@H](C)c3cc(C)c(-c4ccnc(C(F)(F)F)c4)cn3)n2)C(=O)N1C [Compound 109]
– | 100 to 1000 | – | – | CC(C)[C@H]1CN(C)C(=O)N1c1ccnc(NC2(c3ccc(-c4ccnc(C(F)(F)F)c4)cn3)CC2)n1 [Compound 113]
